Results published in patent US20160367708A1, “COMPOSITIONS AND METHODS OF TREATING CANCER” (THE JOHNS HOPKINS UNIVERSITY, priority 2013, published 2016).

Legend:
[1] = test system: mouse BALB/c CRL2836 cell line or the human HeLa cell line; experiment: WST-1 cell proliferation assay, ^32P taken up from the medium versus ^32P held in tubes (electron bombardment only); type: cell-based; conditions: isotope added directly to the medium for 1 day, compared with isotope kept in tubes in the wells; followed up to six days
Protocol: FIG. 1. A cell proliferation assay using WST-1 was performed to assess the relative cell killing ability of ^32Pmonophosphate that is taken up by cells into the DNA versus that which is not taken up by the cells, but subjected only to electron bombardment.
Measurement of In Vitro Cell Killing by ^32P Radioisotope. Two thousand cells of the mouse BALB/c CRL2836 cell line or the human HeLa cell line were growing in complete medium in wells of a 96-well plate and were exposed to either 0 uCi, 3 uCi or 10 uCi of the [^32P]pyrophosphate or the [^32P]monophosphate radioisotopes. One set of triplicate wells contained medium with the designated form of the isotope, while another set of triplicate wells had the isotope contained in small tubes placed in the wells. […] After a 24 hour exposure time, fresh non-radioactive medium was added and WST-1 proliferation assays were done at several subsequent time points.
To assess the relative cell killing ability of [^32P]monophosphate that is taken up by cells into the DNA versus that of is not taken up by the cells, but subjected only to electron bombardment, a cell proliferation assay using WST-1 was undertaken (FIG. 1). […]

HeLa cell xenografts = conditions: applicants' earlier work, cited from earlier work; for inhibition of xenograft tumor growth: nude mice, single low-dose IV injection
HeLa cells [2] = experiment: H2AX immunostain assay of double-strand DNA breaks, ^32P versus ^90Y; type: cell-based, human; conditions: 3 μCi for 24 h, Day 1, 2 or 3
Protocol: FIG. 4. Determination of double-strand DNA breaks in cells caused by exposure to [^32P]PO4 or ^90Y. HeLa cells or mouse BALB/c CRL2836 cells were grown in multiple sections of chamber slides and exposed to 0 μCi or 3 μCi of [^32P]PO4 or ^90Y in complete medium at Day 0. After 24 hours, the radioactivity was removed and cells were grown in non-radioactive complete medium. At Day 1, 2, or 3 the presence of double-strand DNA breaks in the cells was determined by staining for phosphorylated H2-AX histones which indicate double-strand DNA damage.
Assessment of Double-Strand DNA Breaks by ^32P and ^90Y. Ten thousand HeLa cells were seeded in Lab-TekII chamber slides (Thermo Fisher Scientific Inc., Waltham, Mass.). At Day 0 cells were treated with 0 or 3 μCi of ^32P or ^90Y in complete medium. At Day 1, all wells were gently washed and fresh non-radioactive medium was added. At Day 1, Day 2, or Day 3, cells were fixed with 10% formalin at room temperature for 10 min, washed with PBS for two min, and permeabilized with 0.2% Triton X-100 with 10% FBS in PBS for 15 min. After a rinse with PBS, primary mouse anti-human H2AX antibody with 1:1000 dilution (Millipore, Billerica, Mass.) was incubated for 1 h at ambient temperature, and washed twice with PBS for 5 min. […]

[3] = test system: Syngeneic BALB/c CRL2836 tumors; experiment: ^32P-mediated tumor growth inhibition in syngeneic BALB/c mice; type: in vivo, mouse; conditions: for inhibition of established syngeneic tumor growth: single IV injection of 5 μCi ten days after tumor cell injection
Text: FIG. 5. Inhibition of BALB/c syngeneic tumor growth by [^32P]PO4. Syngeneic BALB/c CRL2836 tumors were established in the rear flanks of BALB/c mice at Day 0. After ten days during which the tumors became well vascularized, mice received an injection of 5 μCi of [^32P]PO4 intra-venously via the tail vein. The tumor volumes are shown as the mean of six tumors plus/minus the standard error of the mean. The student's two-sided t-test determined the P value shown.
Establishment of mouse tumors. Syngeneic BALB/c mouse tumors were established by injecting 2×10^6 BALB/c tumor CRL2836 cells ([…], Manassas, Va.) in a volume of 0.2 mL (50% Matrigel, 50% 1×PBS) subcutaneously in the left rear and right rear flank. All mice were female, 10 weeks of age, and purchased from Charles River Laboratories (Wilmington, Mass.).
^32P-Mediated tumor growth inhibition. After ten days, during which time well-vascularized tumors were established, an injection of 5 μCi of the monophosphate form of ^32P (Perkin-Elmer, Cat. # NEX06000) was injected intravenously via the tail vein in 0.1 mL of 1×HBSS. Six tumors (three animals) were studied in each group. After injection, tumor growth was measured three times per week with a digital caliper and the volume was determined using the formula: volume=½(width)^2×(length).
Statistical analysis. The data from the WST-1 cell proliferation are presented as means±standard deviation and the significance was determined using the unpaired Student's t test. The tumor volumes of the untreated and treated mice are shown as means±SE and no outliers were excluded for any reason. The significance was determined using the unpaired Student's t test.

HeLa cells [4] = experiment: WST-1 cell proliferation assay, [^32P]PO4 versus ^90Y; type: cell-based, human
Protocol: (§1) FIG. 2. Inhibition of cell growth by [^32P]PO4 or [^90Y]. The WST-1 proliferation assay was done to determine the level of cell kill by ^32P or by ^90Y. BALB/c tumor CRL2836 cells or HeLa cells were exposed to 0 Ci, 1 μCi, 2.5 μCi, or 5 μCi in complete medium. After 24 hours, the radioactivity was removed and cells were grown in non-radioactive complete medium. WST-1 cell proliferation assays were done at Days 1, 2, 3, 4, and 5 and all assays were done in triplicate. The mean is shown plus/minus the standard deviation. The student's two-sided t-test determined the P value shown.
(§2) Measurement of in vitro cell killing by ^32P and ^90Y. Two thousand cells of the mouse BALB/c CRL2836 cell line or the human HeLa cell line were grown in complete medium in a 96-well plate and at Day 0 were exposed to either 0, 1, 2.5, or 5 μCi of ^90Y radioisotope or the [^32P]PO4 radioisotope in complete medium. After a 24 h incubation, the radioisotope-containing medium was removed and replaced with non-radioactive complete medium (Day 1). […]
(§3) Statistical analysis. The data from the WST-1 cell proliferation are presented as means±standard deviation and the significance was determined using the unpaired Student's t test. […] The significance was determined using the unpaired Student's t test.

[5] = test system: BALB/c tumor CRL2836 cells; experiment: as above; type: cell-based, mouse
Protocol: as §1, §2, §3

[6] = 24 h exposure to identical amounts of isotope

## O=[32P](O)(O)O [[^32P]PO4, ^32P monophosphate]
[1]
  cell death as monitored by the lack of cell growth: far greater levels of cell death
HeLa cell xenografts
  inhibition of xenograft tumor growth: strongly and effectively inhibited tumor growth
HeLa cell xenografts; xenografted nude mice
  detrimental effects (weight gain, general activity, overall health): no apparent detrimental effects
HeLa cells [2]
  double-strand DNA breakage (nuclear staining for phosphorylated H2AX): significant, time-dependent double-strand DNA breakage
[3]; single IV injection of 5 μCi
  effects on the health of the mice (weight gain, overall activity levels): no apparent detrimental effects
[3]
  inhibition of established syngeneic tumor growth: significantly inhibited
[3]; listed as 32P
  inhibition of established syngeneic tumor growth: strongly and effectively inhibited tumor growth
HeLa cells [4]; 2.5 μCi and 5 μCi doses, Day 5
  survival rates at Day 5 relative to ^90Y: barely half of those produced by ^90Y
HeLa cells [4]; [6]
  cell killing efficiency compared with ^90Y: killed cells more efficiently than did ^90Y
[5]; 2.5 μCi and 5 μCi doses, Day 5
  survival rates at Day 5 relative to ^90Y: barely half of those produced by ^90Y
[5]; [6]
  cell killing efficiency compared with ^90Y: killed cells more efficiently than did ^90Y

## [^32P]ATP
HeLa cell xenografts
  inhibition of xenograft tumor growth: significant inhibition
